Assay results published in PubChem BioAssay AID1259407 (Chemical Carcinogenesis Research Information System (CCRIS), 2018).
Activity calls are given as the source filed them. The rule behind the calls is not given here.

Test system: CCRIS mutagenicity, Ames/micronucleus/aberration tests
Assay: CCRIS mutagenicity studies

CCN1CCOCC1
mutagenic call (Test System: AMES SALMONELLA TYPHIMURIUM, Strain/Indicator: TA98, Metabolic Activation: HAMSTER, LIVER, S-9, AROCLOR 1254 (10%), Method: PREINCUBATION): inactive; negative | mutagenic call (Test System: AMES SALMONELLA TYPHIMURIUM, Strain/Indicator: TA98, Metabolic Activation: NONE, Method: PREINCUBATION): inactive; negative | mutagenic call (Test System: AMES SALMONELLA TYPHIMURIUM, Strain/Indicator: TA98, Metabolic Activation: RAT, LIVER, S-9, AROCLOR 1254 (10%), Method: PREINCUBATION): inactive; negative | mutagenic call (Test System: AMES SALMONELLA TYPHIMURIUM, Strain/Indicator: TA100, Metabolic Activation: HAMSTER, LIVER, S-9, AROCLOR 1254 (10%), Method: PREINCUBATION): inactive; negative | mutagenic call (Test System: AMES SALMONELLA TYPHIMURIUM, Strain/Indicator: TA100, Metabolic Activation: NONE, Method: PREINCUBATION): inactive; negative | mutagenic call (Test System: AMES SALMONELLA TYPHIMURIUM, Strain/Indicator: TA100, Metabolic Activation: RAT, LIVER, S-9, AROCLOR 1254 (10%), Method: PREINCUBATION): inactive; negative | mutagenic call (Test System: AMES SALMONELLA TYPHIMURIUM, Strain/Indicator: TA1535, Metabolic Activation: HAMSTER, LIVER, S-9, AROCLOR 1254 (5 OR 30%), Method: PREINCUBATION): active; positive | mutagenic call (Test System: AMES SALMONELLA TYPHIMURIUM, Strain/Indicator: TA1535, Metabolic Activation: HAMSTER, LIVER, S-9, AROCLOR 1254 (10%), Method: PREINCUBATION): active; positive | mutagenic call (Test System: AMES SALMONELLA TYPHIMURIUM, Strain/Indicator: TA1535, Metabolic Activation: NONE, Method: PREINCUBATION): inactive; negative | mutagenic call (Test System: AMES SALMONELLA TYPHIMURIUM, Strain/Indicator: TA1535, Metabolic Activation: RAT, LIVER, S-9, AROCLOR 1254 (5 OR 30%), Method: PREINCUBATION): active; positive | mutagenic call (Test System: AMES SALMONELLA TYPHIMURIUM, Strain/Indicator: TA1535, Metabolic Activation: RAT, LIVER, S-9, AROCLOR 1254 (10%), Method: PREINCUBATION): active; positive | mutagenic call (Test System: AMES SALMONELLA TYPHIMURIUM, Strain/Indicator: TA1537, Metabolic Activation: HAMSTER, LIVER, S-9, AROCLOR 1254 (10%), Method: PREINCUBATION): inactive; negative | mutagenic call (Test System: AMES SALMONELLA TYPHIMURIUM, Strain/Indicator: TA1537, Metabolic Activation: NONE, Method: PREINCUBATION): inactive; negative | mutagenic call (Test System: AMES SALMONELLA TYPHIMURIUM, Strain/Indicator: TA1537, Metabolic Activation: RAT, LIVER, S-9, AROCLOR 1254 (10%), Method: PREINCUBATION): inactive; negative

NC(=O)N/N=C(/CCN1CCCCC1)c1ccc([N+](=O)[O-])o1
mutagenic call (Test System: E. COLI, Strain/Indicator: WP2, Metabolic Activation: NONE, Method: SPOT): active; positive | mutagenic call (Test System: E. COLI, Strain/Indicator: WP2 UVRA, Metabolic Activation: NONE, Method: SPOT): active; positive

O=C(O)/C=C/c1ccc(O)c(O)c1
mutagenic call (Test System: AMES SALMONELLA TYPHIMURIUM, Strain/Indicator: TA98, Metabolic Activation: HAMSTER, LIVER, S-9, AROCLOR 1254, Method: STANDARD PLATE): inactive; negative | mutagenic call (Test System: AMES SALMONELLA TYPHIMURIUM, Strain/Indicator: TA98, Metabolic Activation: NONE, Method: STANDARD PLATE): inactive; negative | mutagenic call (Test System: AMES SALMONELLA TYPHIMURIUM, Strain/Indicator: TA98, Metabolic Activation: RAT, LIVER, S-9, AROCLOR 1254, Method: STANDARD PLATE): inactive; negative | mutagenic call (Test System: AMES SALMONELLA TYPHIMURIUM, Strain/Indicator: TA100, Metabolic Activation: HAMSTER, LIVER, S-9, AROCLOR 1254, Method: STANDARD PLATE): inactive; negative | mutagenic call (Test System: AMES SALMONELLA TYPHIMURIUM, Strain/Indicator: TA100, Metabolic Activation: NONE, Method: STANDARD PLATE): inactive; negative | mutagenic call (Test System: AMES SALMONELLA TYPHIMURIUM, Strain/Indicator: TA100, Metabolic Activation: RAT, LIVER, S-9, AROCLOR 1254, Method: STANDARD PLATE): inactive; negative | mutagenic call (Test System: AMES SALMONELLA TYPHIMURIUM, Strain/Indicator: TA1535, Metabolic Activation: HAMSTER, LIVER, S-9, AROCLOR 1254, Method: STANDARD PLATE): inactive; negative | mutagenic call (Test System: AMES SALMONELLA TYPHIMURIUM, Strain/Indicator: TA1535, Metabolic Activation: NONE, Method: STANDARD PLATE): inactive; negative | mutagenic call (Test System: AMES SALMONELLA TYPHIMURIUM, Strain/Indicator: TA1535, Metabolic Activation: RAT, LIVER, S-9, AROCLOR 1254, Method: STANDARD PLATE): inactive; negative | mutagenic call (Test System: AMES SALMONELLA TYPHIMURIUM, Strain/Indicator: TA1537, Metabolic Activation: HAMSTER, LIVER, S-9, AROCLOR 1254, Method: STANDARD PLATE): inactive; negative | mutagenic call (Test System: AMES SALMONELLA TYPHIMURIUM, Strain/Indicator: TA1537, Metabolic Activation: NONE, Method: STANDARD PLATE): inactive; negative | mutagenic call (Test System: AMES SALMONELLA TYPHIMURIUM, Strain/Indicator: TA1537, Metabolic Activation: RAT, LIVER, S-9, AROCLOR 1254, Method: STANDARD PLATE): inactive; negative | mutagenic call (Test System: AMES SALMONELLA TYPHIMURIUM, Strain/Indicator: TA1538, Metabolic Activation: HAMSTER, LIVER, S-9, AROCLOR 1254, Method: STANDARD PLATE): inactive; negative | mutagenic call (Test System: AMES SALMONELLA TYPHIMURIUM, Strain/Indicator: TA1538, Metabolic Activation: NONE, Method: STANDARD PLATE): inactive; negative | mutagenic call (Test System: AMES SALMONELLA TYPHIMURIUM, Strain/Indicator: TA1538, Metabolic Activation: RAT, LIVER, S-9, AROCLOR 1254, Method: STANDARD PLATE): inactive; negative | mutagenic call (Test System: MOUSE LYMPHOMA, Strain/Indicator: L5178Y (TK+/TK-), Metabolic Activation: NONE, Method: SUSPENSION/PLATE): active; positive. reevaluation of results: positive | mutagenic call (Test System: MOUSE LYMPHOMA, Strain/Indicator: L5178Y (TK+/TK-), Metabolic Activation: RAT, LIVER, S-9, AROCLOR 1254, Method: SUSPENSION/PLATE): inactive; negative; reevaluation of results: negative
